Experimental data reported in patent publication US20220008450A1, “ANTI-HEPATITIS B VIRUS AGENT” (DAIKIN INDUSTRIES, LTD., priority 2018, published 2022).

Assays:
[1] = test system: HBV; assay: Anti-HBV activity: intracellular HBV DNA by quantitative PCR in HepG2.2.15 cells; assay type: cell-based, hepatitis B virus; settings: for EC50: Hepatitis B virus, 168 h, HepG2.2.15 cells, intracellular HBV DNA, day 7 after addition, read-out: EC50 (50% effective concentration), anti-HBV activity
Experimental: Anti-HBV activity was evaluated by quantitative PCR for determining the amount of HBV DNA in cells on the seventh day after the addition of the agent, using the HepG2.2.15 cell line of HBV-producing cells obtained by introducing a gene having a length twice that of the HBV genome into the human liver cancer cell line HepG2. For PCR of HBV DNA, a forward primer (HBV-S190F; 5′-GCT CGT GTT ACA GGC GGG-3′: SEQ ID NO: 1) and a reverse primer (HBV-S703R; 5′-GAACCACTGAACAAATGGCACTAGTA-3′: SEQ ID NO: 2) were used. PCR was performed by carrying out a reaction at 95° C. for 10 sec, 62° C. for 10 sec, and 72° C. for 30 sec for 35 cycles.
Specifically, HepG2.2.15 cells were seeded at a concentration of 1×10^5 cells/well. 24 hours later, the compounds of Example 1 and Comparative Example 1 were diluted to have a concentration of 0, 0.49, 0.97, 1.95, 3.90, 7.81, 15.6, 31.3, 62.5, 125, 250, 500, and 1000 nM; and added to the cells. After the cells were cultured for 7 days, each cytoplasmic compartment was collected, and DNA was purified by phenol-chloroform extraction. 20 ng of the purified DNA was used to measure the amount of intracellular HBV DNA by quantitative PCR.
The EC50 (50% effective concentration) was calculated from a graph showing the relationship between the concentration of the compound and anti-HBV activity.

[2] = test system: HBs antigen; assay: HBs antigen level in HepG2.2.15 culture supernatant by CLIA; assay type: cell-based, hepatitis B virus; settings: day 4 after addition, compared to Entecavir and Tenofovir disoproxil fumarate (FIG. 2)
Experimental: The HBs antigen level was measured by measuring the culture supernatant on the fourth day after the addition of the agent by chemiluminescent immunoassay (CLIA) using HepG2.2.15, i.e., HBV-producing cells obtained by introducing a gene having a length twice that of the HBV genome into the human liver cancer cell line HepG2.

[3] = Cytotoxicity test (WST-1) in HepG2 NTCP-myc cells; assay type: cell-based; settings: human, 7 days culture, read-out: CC50 (50% cytotoxic concentration)
Experimental: HepG2 NTCP-myc cells were seeded at a concentration of 2×10^4 cells/well. 24 hours later, agents were diluted to have a concentration of 0, 0.49, 0.97, 1.95, 3.90, 7.81, 15.6, 31.3, 62.5, 125, 250, 500, and 1000 nM; and added to the cells. The HepG2 NTCP-myc cells were cultured for 7 days. After the culture, 10 μl of Premix WST-1 Cell Proliferation Assay System (TaKaRa) was added, and the cells were cultured at 37° C. for 2 hours. Thereafter, absorbance was determined at 450 nm using a microplate reader.
The CC50 (50% cytotoxic concentration) was calculated from a graph showing the relationship between the concentration of the compound and cytotoxicity.

| SMILES | EC50 [1] [µM] | SI (CC50/EC50) ([1]; CC50 (HepG2 NTCP-myc) divided by EC50 (HepG2.2.15)) | HBs antigen level (relative amount of extracellular HBs antigen) [2] | CC50 at 7 days [3] [µM] |
| --- | --- | --- | --- | --- |
| OC[C@H]1O[C@@H](n2cnc3c(Cl)nc(Cl)nc32)[C@@H](F)[C@@H]1O [Comparative Example 1, 2,6-dichloro-9-((2R,3S,4R,5R)-3-fluoro-4-hydroxy-5-(hydroxymethyl)tetrahydrofuran-2-yl)-9H-purine, reference compound] | > 10 | – | – | – |
| Nc1nc(F)nc2c1ncn2[C@@H]1O[C@H](CO)C(O)C1F (stereo partly drawn) [Example 1, 2′-deoxy-2′-fluoro-β-2-fluoro-D-adenosine] | 0.00158 | 213411 | remarkably reduced | 337 |
